According to patent publication US12714683B2, “Treatment of CNS disorders with sleep disturbances” (University of Copenhagen, priority 2019, dated 2026):

Legend:
[1] = target: CaMK2a (Homo sapiens, UniProt Q9UQM7); conditions: cited from earlier work
[2] = target: GABAB receptors (Homo sapiens, UniProt Q9UBS5); conditions: cited from earlier work
[3] = test system: hypocretin knock-out mouse model; experiment: Hypocretin knock-out mouse model of narcolepsy, sleep-wake EEG/EMG and cataplexy; type: in vivo; conditions: for cataplexy: mixed-effects model with post hoc Sidak, FIG. 4
Text: (§1) Using the hypocretin knock-out mouse model we determine changes in sleep-wake EEG/EMG patterns (including cataplexy) at different time points (1 day to 3 weeks) under the influence of a compound (HOCPCA) of Formula I. After drug cessation, EEG/EMG changes are then further mapped for up to 4 weeks. Under anesthesia with isoflurane (2% to 2.5% in O2) electrodes are placed in the scull and neck muscles of the mice. After 5-10 days recovery the electrodes are connected to a recording system, and EEG/EMG signals are recorded with synchronised video recordings. From the data, sleep/wake parameters and cataplexy episodes are scored and calculated (FIG. 4-5).

[4] = test system: DTA narcolepsy mouse model; experiment: DTA mouse model of narcolepsy, sleep-wake EEG/EMG and cataplexy; type: in vivo; conditions: two-way ANOVA, p=0.0017, n=5-6; FIG. 3
Text: as §1, with “DTA narcolepsy” for “hypocretin knock-out”, “are determining” for “determine”, “sleepwake” for “sleep-wake”, “compound” for “compound (HOCPCA)”, “I (Ph-HTBA).” for “I.”, “FIG. 3).” for “(FIG. 4-5).”

[5] = test system: rat CaMK2a; experiment: 3H-HOCPCA filtration binding to recombinant wild-type or mutated CaMK2a expressed in HEK293T cells; conditions: hub domain mutations Arg433Gln, Arg453Gln, Arg469Cys/Arg469Gln; HEK whole cell homogenates; expression confirmed by WB; FIG. 2
Protocol: ^3H-HOCPCA Binding to Recombinant CaMK2a Expressed in HEK293T Cells
HEK293T cells were cultured using standard conditions, using Dulbecco's modified Eagle Medium with GlutaMax, 10% fetal bovine serum and 1% penicillin-streptomycin, and incubated at 37° C. in a humidified atmosphere of […] and 5% CO2. Site-directed mutagenesis was done using point mutations and performed by GenScript USA Inc. Cells were transfected with wild-type or mutated cmyc-tagged rat CaMK2a (Origene construct RR201121), using polyethimine, linear, MW 25000 (Polysciences Inc., Warrington, PA, USA). Whole cell homogenates were prepared 48 hr post-transfection by washing the cells with ice-cold 1×PBS and harvesting by scraping. Cells were collected and centrifuged for 10 min at 1000×g. Cell pellets were resuspended in ice-cold 1×PBS and homogenized using 2×1 mm zirkonium beads in a bullet blender for 20 s at max speed (NextAdvance, NY, USA). Homogenates were cleared by centrifugation (10 min, 4° C., […]). Protein concentration was determined using the Bradford protein assay. […] Nonspecific binding was determined with 1-10 mM GHB. […] The dried filters were added scintillation liquid and radioactivity measured on a Tricarb 2100 Scintillation counter (Packard). […]
Total expression levels of CaMK2a were assessed by Western blot with anti-myc-Alexa488 (MA1980-A488, ThermoFisher Scientific). […]

[6] = target: T1, CaMK2a (Mus musculus, UniProt P11798); experiment: Mouse brain 3H-HOCPCA autoradiography (Angelman syndrome Ube3a m-/p+ vs wild-type brain slices); type: binding; conditions: Ube3a m-/p+ (HET, Angelman syndrome) mice vs WT; 1 nM radioligand; most pronounced in hippocampus; FIG. 1
T1 construct: mouse brains from either (Ube3a^m−/p+) or wildtype mice, were dissected, sliced on a cryostat; from tissue; host or cells: mouse brain slices (Ube3a m-/p+ and wild-type)
T1 sequence (P11798 whole entry): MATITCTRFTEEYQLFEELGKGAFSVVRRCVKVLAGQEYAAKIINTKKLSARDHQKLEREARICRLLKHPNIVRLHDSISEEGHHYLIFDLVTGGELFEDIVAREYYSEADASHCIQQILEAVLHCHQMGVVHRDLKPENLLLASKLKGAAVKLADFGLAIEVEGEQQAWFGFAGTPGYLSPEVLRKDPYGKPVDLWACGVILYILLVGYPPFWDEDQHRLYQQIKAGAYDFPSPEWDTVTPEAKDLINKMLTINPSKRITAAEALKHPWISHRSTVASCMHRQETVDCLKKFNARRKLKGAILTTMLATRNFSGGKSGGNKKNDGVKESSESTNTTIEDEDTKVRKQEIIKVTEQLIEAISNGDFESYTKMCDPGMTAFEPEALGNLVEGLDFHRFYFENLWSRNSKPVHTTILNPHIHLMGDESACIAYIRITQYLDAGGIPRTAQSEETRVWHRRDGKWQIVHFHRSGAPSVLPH

[7] = test system: mouse model of narcolepsy type 1; conditions: Black et al. J Neurosci 2014; cited from earlier work

Sequence of GABAB receptors (Q9UBS5 15-961 limits assumed): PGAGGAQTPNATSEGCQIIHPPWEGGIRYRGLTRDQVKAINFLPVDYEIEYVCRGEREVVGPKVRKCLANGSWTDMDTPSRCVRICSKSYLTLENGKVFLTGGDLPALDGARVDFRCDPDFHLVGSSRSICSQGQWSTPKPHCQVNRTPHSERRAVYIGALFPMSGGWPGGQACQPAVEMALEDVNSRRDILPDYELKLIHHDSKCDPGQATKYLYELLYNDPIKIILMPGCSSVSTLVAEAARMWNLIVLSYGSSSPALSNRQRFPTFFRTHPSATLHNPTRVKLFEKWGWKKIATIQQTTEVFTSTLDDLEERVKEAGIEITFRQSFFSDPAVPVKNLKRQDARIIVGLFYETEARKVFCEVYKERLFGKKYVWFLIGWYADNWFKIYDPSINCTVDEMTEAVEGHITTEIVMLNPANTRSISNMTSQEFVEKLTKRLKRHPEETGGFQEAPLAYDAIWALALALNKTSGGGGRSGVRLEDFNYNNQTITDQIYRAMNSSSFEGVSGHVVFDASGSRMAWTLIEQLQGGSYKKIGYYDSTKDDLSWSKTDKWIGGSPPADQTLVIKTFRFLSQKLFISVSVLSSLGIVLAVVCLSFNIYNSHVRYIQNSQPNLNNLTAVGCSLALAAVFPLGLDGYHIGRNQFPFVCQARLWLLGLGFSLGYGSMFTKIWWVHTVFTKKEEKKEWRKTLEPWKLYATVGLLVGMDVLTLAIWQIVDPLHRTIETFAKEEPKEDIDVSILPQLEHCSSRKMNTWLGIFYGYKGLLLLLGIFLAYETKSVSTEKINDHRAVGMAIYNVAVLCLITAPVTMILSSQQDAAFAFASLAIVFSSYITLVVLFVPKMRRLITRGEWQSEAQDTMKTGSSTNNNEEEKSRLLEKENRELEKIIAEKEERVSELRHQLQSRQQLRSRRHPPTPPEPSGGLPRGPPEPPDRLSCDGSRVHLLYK
Sequence of GABAB receptors (O75899 42-941 partner): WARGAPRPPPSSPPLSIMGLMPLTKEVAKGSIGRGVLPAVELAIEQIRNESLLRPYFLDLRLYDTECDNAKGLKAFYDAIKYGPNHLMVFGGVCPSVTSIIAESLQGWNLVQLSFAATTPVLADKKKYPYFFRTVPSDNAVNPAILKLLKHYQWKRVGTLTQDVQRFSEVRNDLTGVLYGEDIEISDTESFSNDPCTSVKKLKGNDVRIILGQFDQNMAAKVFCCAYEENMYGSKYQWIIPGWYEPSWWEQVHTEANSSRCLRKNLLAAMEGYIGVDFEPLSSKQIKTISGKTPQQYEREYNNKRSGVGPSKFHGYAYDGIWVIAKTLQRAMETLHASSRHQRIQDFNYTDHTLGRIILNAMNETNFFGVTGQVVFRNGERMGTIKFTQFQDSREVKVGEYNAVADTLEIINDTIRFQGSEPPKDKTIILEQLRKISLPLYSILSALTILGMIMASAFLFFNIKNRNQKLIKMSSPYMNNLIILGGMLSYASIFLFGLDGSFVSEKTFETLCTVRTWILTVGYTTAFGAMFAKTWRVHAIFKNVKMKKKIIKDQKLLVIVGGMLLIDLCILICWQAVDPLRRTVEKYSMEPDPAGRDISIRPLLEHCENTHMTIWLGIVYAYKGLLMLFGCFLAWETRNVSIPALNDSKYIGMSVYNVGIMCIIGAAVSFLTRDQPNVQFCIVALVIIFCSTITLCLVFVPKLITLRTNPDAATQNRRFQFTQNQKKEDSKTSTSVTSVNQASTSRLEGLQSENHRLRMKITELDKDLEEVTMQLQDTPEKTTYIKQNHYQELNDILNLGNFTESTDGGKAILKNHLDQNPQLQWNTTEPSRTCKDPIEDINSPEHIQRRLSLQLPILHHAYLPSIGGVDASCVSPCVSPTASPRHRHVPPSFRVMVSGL
Sequence of CaMK2a (Homo sapiens, UniProt Q9UQM7) (Q9UQM7 whole entry): as the sequence (P11798 whole entry) above, with N324S counted along it

O=C(O)CCCO [GHB]
binding affinity to specific protein in neurons (CaMK2a) [1]: high affinity (nanomolar to micromolar) | binding affinity to GABAB receptors [2]: low affinity (millimolar)

O=C(O)C1=CC(O)CC1 (stereo not drawn) [HOCPCA, 3-hydroxycyclopent-1-enecarboxylic acid]
cataplexy ([3]; day 8, p=0.044): decreases cataplexy significantly | cataplexy ([3]; day 15, p=0.010): decreases cataplexy significantly | wakefulness, medium long wake bouts ([3]; p=0.01, two-way ANOVA with post hoc Dunnett): significant decrease of medium long wake bouts

O=C(O)/C=C1\CCCc2cc(-c3ccccc3)ccc2C1O (stereo not drawn) [Ph-HTBA]
treatment effect on sleep/wake parameters and cataplexy episodes [4]: overall statistical significant effect

O=C(O)C1=CC(O)CC1 (stereo not drawn) [^3H-HOCPCA]
3H-HOCPCA binding to mutated CaMK2a compared to wild-type [5]: completely abolished binding | 3H-HOCPCA binding levels in brain slices [6]: Increased Binding

NCC(CC(=O)O)c1ccc(Cl)cc1 (stereo not drawn) [baclofen]
efficacy on narcolepsy symptoms [7]: has efficacy on narcolepsy symptoms
